# Reference: US20050042308A1, “Pharmaceutical composition having cholagogic and litholytic effect and its preparation method” (priority 2001, published 2005)
# Marks after values point to notes of the source that are not given here.
# Tests used:
# [1] = system: granuloma of rat; experiment: Granuloma of rat caused by agar; type: in vivo; conditions: Prednisone 30 (mg)
# From the text: Thereinto, the inhibition effect of moderates high dose group is compared with control group, P<0.05, P<0.01 respectively, showing significant inhibition effect.
# [2] = system: ankle swollen of rat caused by carragheen; experiment: Ankle swollen of the rat caused by carragheen; type: in vivo; conditions: Eulektrol 0.15 ml/kg, Prednisone acetate 30(mg)
# [3] = system: bile secretion of the rat; experiment: Cholagogue experiment in rat (bile efflux coefficient); type: in vivo; conditions: Eulektrol 0.150 ml/kg; for bile efflux coefficient before 1 hour: before drug administration, Cholanic acid 100 mg (pure substance), Dehydrogenized Cholanic acid 100 mg (pure substance) groups; for (%) increase of bile efflux coefficient compared with control group, after 1 hour / (%) increase of bile efflux coefficient compared with control group, after 2 hours / (%) increase of bile efflux coefficient compared with control group, after 3 hours / (%) increase of bile efflux coefficient compared with control group, after 4 hours / bile efflux coefficient after 1 hour / bile efflux coefficient after 2 hours / bile efflux coefficient after 3 hours / bile efflux coefficient after 4 hours: into duodenum, Cholanic acid 100 mg, Dehydrogenized Cholanic acid 100 mg (pure substance)
# Experimental: After grouping, the experimental rats are fasting for 16 hours before experiment; anesthetize these rats through ip ethyl carbamate (also named Urethane). After anesthesia, enlace the four limbs; incise the abdomen to find the pylorus of the stomach. Along the pylorus, find common bile duct. Use little forceps to deliminate the surface envelope and reveal the common bile duct, ligate the lower extremity, carefully shear a little ventage, insert plastic duct with external diameter 1 mm into the common bile duct proximal to the liver to drain the bile. After bile drainage volume is stable, record the bile collection volume every 0.5 hour, for two times.
# [4] = system: bilirubin in bile; experiment: The measure of bilirubin of bile; type: in vivo; conditions: cholanic acid 0.1(g), Eulektrol 0.15(g), Dehydrogenized cholanic acid 0.1(g)
# [5] = system: cholelithiasis patients; conditions: cited from earlier work
# [6] = system: auricular swollen of mouse caused by dimethylbenzene; experiment: Auricular inflammation of mouse caused by dimethylbenzene; type: in vivo; conditions: Eulektrol 0.15 ml/kg; Indothemacin 30 (mg)
# [7] = system: gallbladder muscle stripe in vitro; experiment: Gallbladder smooth muscle contraction caused by acetylcholine; set-up: species or system guinea pig
# Experimental: Krebs liquid culture plate, anatomize longitudinally to get 2 pieces of muscle stripe of gallbladder with 10 mm length and […] width. Place the muscle stripe into 37° C. constant temperature Mcrruary bath with Kmbs solution (20 ml), the lower end is fixed on the hook at the bottom of the bath, the upper end is connected to the energy transducer, adjust the oxygen flow gas bubble to tiny and uniform flow, the energy transducer is connected to physiological recorder with prepositive amplifier. Every time after adding test solution observes for more than 3 minutes. When reaching the biggest effect, timely rinse the bath with flushing solution three times with 15 minutes break. After the contraction curve becomes balanced, to make another experiment. […] Krebs solution should be prepared with double-distilled water). After adding acetylcholine, record the contraction curve of gallbladder muscle. From the contraction curve, we can see the amplitude of contraction curve rise. After contraction curve reaches peak-balance, add different concentration LDRS solution. After adding drug solution, the amplitude of contraction curve of gallbladder muscle stripe descends. Record the altitude of amplitude of every phase. The statistic method is below: before drug administration, from the upper and lower limit point of the amplitude contraction curve of gallbladder muscle stripe to respectively line a straight line parallel to the transverse coordinate axis, measure the altitude between the two parallel line as the normal amplitude (The lower line before drug administration is used as basal line). After contraction curve is stable, adding different concentration Ach solution, we can see the amplitude of contraction curve of gallbladder muscle stripe rise, through the peak of amplitude to line a straight line parallel to basal line and measure the altitude between the two parallel line as amplitude of Ach. After curve is stable, add different concentration LDRS stock solution and through the lowest point of amplitude to line parallel to basal line, measure the altitude between the basal line and the lowest line.
# [8] = system: fever of the rat; experiment: Fever of the rat caused by 2, 4-dinitrophenol; type: in vivo; conditions: Aminopyrine 80(mg), Eulektrol 0.15 ml/kg
# Experimental: Get […] healthy male rats with 1 80˜220 g body weight, randomly separate them into 6 groups according to the body weight with 8 rats in each group. The rats in the 1st group are forced to take 0.5% CMC 10 ml/kg. The rats in the 2nd group are forced to take aminopyrine […]. The rats in 3rd group are forced to take Eulektrol 0.15 ml /kg. The rats in the 4th, 5th, 6th are respectively forced to take LDRS 0.077 ml, 0.154 ml, […]. 15 minutes later after drug administration SC 25 mg/ml 2,4-dinitrophenol in the middle of shoulder and back, then measure the anal temperature in 0 hour before drug administration, 0.25 hours, 0.5 hours, 1 hours, 2 hours, 4 hours after drug administration.
# [9] = series with 8 muscle stripes, Ach 10^−4 ml alone, or LDRS (printed 10^−2 ml) added after Ach
# [10] = series with 13 muscle stripes, Ach 10^−4 ml alone, or LDRS 10^−2 ml added after Ach
Compound,bile efflux coefficient before 1 hour [3],"(%) increase of bile efflux coefficient compared with control group, after 1 hour [3]","(%) increase of bile efflux coefficient compared with control group, after 2 hours [3]","(%) increase of bile efflux coefficient compared with control group, after 3 hours [3]","(%) increase of bile efflux coefficient compared with control group, after 4 hours [3]",bile efflux coefficient after 1 hour [3],bile efflux coefficient after 2 hours [3],bile efflux coefficient after 3 hours [3],bile efflux coefficient after 4 hours [3],D-bil in bile ([4]; 1 h),F-bil in bile ([4]; 1 h),T-BIL in bile ([4]; 1 h),D-bil in bile ([4]; 2 h),F-bil in bile ([4]; 2 h),T-BIL in bile ([4]; 2 h),D-bil in bile ([4]; 3 h),F-bil in bile ([4]; 3 h),T-BIL in bile ([4]; 3 h),D-bil in bile ([4]; 4 h),F-bil in bile ([4]; 4 h),other results
CC(=O)OCC(=O)[C@@]1(O)CC[C@H]2[C@@H]3CCC4=CC(=O)C=C[C@]4(C)[C@H]3C(=O)C[C@@]21C [Prednisone acetate],,,,,,,,,,,,,,,,,,,,,average granuloma coefficient [1]: 0.20 ± 0.08; inhibition rate of granuloma coefficient [1]: 69.2** %; size of ankle ([2]; 2 h after drug): 2.34 ± 0.17 cm; size of ankle ([2]; 4 h after drug): 2.10 ± 0.15 cm; size of ankle ([2]; 8 h after drug): 1.90 ± 0.19 cm; size of ankle ([2]; 16 h after drug): 2.10 ± 0.211 cm; size of ankle ([2]; 20 h after drug): 2.00 ± 0.009 cm
"C[C@H](CCC(=O)O)[C@H]1CC[C@H]2[C@@H]3CCC4CCCC[C@]4(C)[C@H]3CC[C@]12C (some centres unmarked) [Cholanic acid, cholanic acid]",0.116 ± 0.04 ml(bile)/100 g · bw,6.4%,26.8%,123.6%,45.1%,0.166 ± 0.04 ml(bile)/100 g · bw,0.189 ± 0.05 ml(bile)/100 g · bw,0.246 ± 0.04 ml(bile)/100 g · bw,0.164 ± 0.04 ml(bile)/100 g · bw,67.3 ± 25.4 mmol/L,26.7 ± 20.1 mmol/L,94.1 ± 37.9 mmol/L,60.8 ± 31.9 mmol/L,16.9 ± 12.8 mmol/L,77.7 ± 38.9 mmol/L,55.3 ± 18.2 mmol/L,27.2 ± 13.9 mmol/L,82.5 ± 29.0 mmol/L,53.0 ± 31.6 mmol/L,28.3 ± 10.6 mmol/L,"T-BIL in bile ([4]; 4 h): 81.3 ± 29.8 mmol/L; efficacy of the therapeutics (reducing the gallstone size, dissolving the gallstone or decreasing the gallstone) ([5]; clinical case report): about 50%; patients with SGOT increase ([5]; treatment of the cholelithiasis): 20%"
"COc1ccc2c(c1)c(CC(=O)O)c(C)n2C(=O)c1ccc(Cl)cc1 [Indothemacin, indomethacin]",,,,,,,,,,,,,,,,,,,,,inhibition rate of auricular swelling [6]: 74.0%; the auricular weight difference between left and right [6]: 3.98 ± 2.5 mg/100 g
"CC(=O)OCC[N+](C)(C)C [Ach, acetylcholine]",,,,,,,,,,,,,,,,,,,,,"gallbladder contraction amplitude [7, 9]: 32.73 ± 6.90 mm; variation rate of amplitude (normal value = 100.0) [7, 9]: 654.6%; gallbladder contraction amplitude [7, 10]: 35.2 ± 6.84 mm; variation rate of amplitude (normal value = 100.0) [7, 10]: 541.5%"
"C[C@H](CCC(=O)O)[C@H]1CC[C@H]2[C@@H]3C(=O)C[C@@H]4CC(=O)CC[C@]4(C)[C@H]3CC(=O)[C@]12C [Dehydrogenized Cholanic acid, dehydrogenized cholanic acid]",0.116 ± 0.04 ml(bile)/100 g · bw,5.8%,57.0%,102.7%,85.8%,0.165 ± 0.08 ml(bile)/100 g · bw,0.234 ± 0.07 ml(bile)/100 g · bw,0.223 ± 0.05 ml(bile)/100 g · bw,0.210 ± 0.07 ml(bile)/100 g · bw,57.8 ± 12.8 mmol/L,15.4 ± 4.9 mmol/L,73.1 ± 14.1 mmol/L,43.4 ± 15.5 mmol/L,10.9 ± 11.2 mmol/L,54.3 ± 23.9 mmol/L,39.9 ± 10.2 mmol/L,8.16 ± 3.1 mmol/L,48.1 ± 14.8 mmol/L,45.7 ± 16.4 mmol/L,13.6 ± 5.69 mmol/L,T-BIL in bile ([4]; 4 h): 59.3 ± 19.7 mmol/L
"Cc1c(N(C)C)c(=O)n(-c2ccccc2)n1C [Aminopyrine, aminopyrine]",,,,,,,,,,,,,,,,,,,,,the body temperature variation after drug administration ([8]; 0.25 h): −0.21 ± 0.52 °C; the body temperature variation after drug administration ([8]; 0.5 h): −0.05 ± 0.81 °C; the body temperature variation after drug administration ([8]; 1 h): 0.03 ± 0.79 °C; the body temperature variation after drug administration ([8]; 2 h): 0.49 ± 0.47 °C; the body temperature variation after drug administration ([8]; 4 h): 0.30 ± 0.67 °C
